Assay results as given in patent US7799768B2, “Polymorphs of 3-O-(3′,3′-dimethylsuccinyl)betulinic acid di-N-methyl-D-glucamine” (priority 2005, dated 2010).
Values after ≈ are worked out from the molar mass of the structure shown.

Tests used:
[1] = relative bioavailability of oral formulations in rats (plasma DSB free acid); assay type: in vivo, Sprague Dawley rats; conditions: single oral 25 mg/kg; for Cmax: male, po
Experimental: The following study was conducted to compare the relative bioavailability of oral formulations prepared with DSB•2NMG Form I and amorphous DSB•2NMG.
Groups of four male Sprague Dawley rats with surgically implanted jugular cannulas were given a single oral 25 mg/kg dose of DSB•2NMG (Form I or amorphous) in one of six formulations: • Group 1: 10% hydroxypropyl-β-cyclodextrin solution of amorphous DSB•2NMG; • Group 2: 10% hydroxypropyl-β-cyclodextrin solution of DSB•2NMG Form I; • Group 3: Suspension of DSB•2NMG Form I in 0.5% carboxymethylcellulose; • Group 4: Solution of DSB•2NMG Form I in 1% ethanol/10% polyethylene glycol 400/89% water; • Group 5: Solution of DSB•2NMG Form I in 10% propylene glycol/90% water; and • Group 6: Solution of DSB•2NMG Form I in water.

[2] = physchem; conditions: 25 °C, organic solvent or mixture, approximate solubility
[3] = male rats, carboxymethylcellulose, ethanol/PEG 400/water, propylene glycol/water and water formulations

area under the plasma concentration-time curve from time zero extrapolated to infinity (AUCINF) ([1]; male rats, 10% hydroxypropyl-β-cyclodextrin solution, average, 25 mg/kg)	exposure to DSB free acid among Form I formulations ([1]; male rats, 10% propylene glycol/water vehicle, FIG. 9)	AUCINF, times greater than from Form I given in hydroxypropyl-β-cyclodextrin [1, 3]	DSB free acid concentrations versus Form I given in 10% hydroxypropyl-β-cyclodextrin [1, 3]	plasma concentration profile compared to amorphous DSB•2NMG formulation ([1]; male rats, hydroxypropyl-cyclodextrin formulation, FIG. 8)	Cmax ([1]; Sprague-Dawley, rat, plasma, 25 mg/kg, solution in 1% ethanol/10% polyethylene glycol 400/water, average)	Cmax ([1]; Sprague-Dawley, rat, plasma, 25 mg/kg, solution in 10% propylene glycol/water, average)	Cmax ([1]; Sprague-Dawley, rat, plasma, 25 mg/kg, solution in water, average)	Cmax ([1]; Sprague-Dawley, rat, plasma, 25 mg/kg, suspension in 0.5% carboxymethylcellulose, average)	solubility ([2]; 1-butanol)	solubility ([2]; 1-propanol)	solubility ([2]; 2-butanol)	solubility ([2]; 2-propanol)	solubility ([2]; acetone)	solubility ([2]; dimethyl formamide)	solubility ([2]; ethanol)	AUC(0-inf) ([1]; Sprague-Dawley, rat, plasma, male rats, 10% hydroxypropyl-β-cyclodextrin solution, average, read-out: area under the plasma concentration-time curve from time zero extrapolated to infinity (AUCINF))	SMILES
23440 ng·h/mL	greatest exposure	1.5-2 times	greater	equivalent plasma concentration profiles	8490 ng/mL	10400 ng/mL	9770 ng/mL	8200 ng/mL	< 3000 µg/mL	~5000 µg/mL (≈ 8.55 mM)	< 3000 µg/mL	< 3000 µg/mL	< 3000 µg/mL	> 50000 µg/mL	~5000 µg/mL (≈ 8.55 mM)	–	C=C(C)[C@@H]1CC[C@]2(C(=O)O)CC[C@]3(C)[C@H](CC[C@@H]4[C@@]5(C)CC[C@H](OC(=O)CC(C)(C)C(=O)O)C(C)(C)[C@@H]5CC[C@]43C)[C@@H]12 [DSB•2NMG Form I, 3-O-(3′,3′-dimethylsuccinyl)betulinic acid di-N-methyl-D-glucamine]
–	–	–	–	–	–	–	–	–	–	–	–	–	–	–	–	21500 ng·h/mL	C=C(C)[C@@H]1CC[C@]2(C(=O)O)CC[C@]3(C)[C@H](CC[C@@H]4[C@@]5(C)CC[C@H](OC(=O)CC(C)(C)C(=O)O)C(C)(C)[C@@H]5CC[C@]43C)[C@@H]12 [amorphous DSB•2NMG, 3-O-(3′,3′-dimethylsuccinyl)betulinic acid di-N-methyl-D-glucamine]
